Laboratory results: ChEMBL document CHEMBL1133272, “A solid-phase synthesis for beta-turn mimetics of sialyl Lewis X” (Bioorg Med Chem Lett, 2000)

Tests used:
L-selectin = target: T1, L-selectin (Homo sapiens, UniProt P14151); experiment: In vitro inhibitory activity of compound was determined against Selectin L binding by ELISA assay
T1 sequence (P14151 whole entry): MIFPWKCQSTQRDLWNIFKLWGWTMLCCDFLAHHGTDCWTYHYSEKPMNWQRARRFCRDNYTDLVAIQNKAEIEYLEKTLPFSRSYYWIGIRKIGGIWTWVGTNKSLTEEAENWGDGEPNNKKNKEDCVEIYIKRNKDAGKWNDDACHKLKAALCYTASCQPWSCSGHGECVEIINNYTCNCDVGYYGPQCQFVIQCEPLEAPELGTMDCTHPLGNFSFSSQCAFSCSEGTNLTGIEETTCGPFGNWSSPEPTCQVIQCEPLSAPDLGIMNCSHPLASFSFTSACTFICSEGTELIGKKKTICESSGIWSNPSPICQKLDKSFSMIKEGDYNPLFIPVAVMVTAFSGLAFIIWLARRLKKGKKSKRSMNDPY

E-selectin = target: T2, E-selectin (Homo sapiens, UniProt P16581); experiment: In vitro inhibitory activity of compound was determined against Selectin E binding by ELISA assay
T2 sequence (P16581 whole entry): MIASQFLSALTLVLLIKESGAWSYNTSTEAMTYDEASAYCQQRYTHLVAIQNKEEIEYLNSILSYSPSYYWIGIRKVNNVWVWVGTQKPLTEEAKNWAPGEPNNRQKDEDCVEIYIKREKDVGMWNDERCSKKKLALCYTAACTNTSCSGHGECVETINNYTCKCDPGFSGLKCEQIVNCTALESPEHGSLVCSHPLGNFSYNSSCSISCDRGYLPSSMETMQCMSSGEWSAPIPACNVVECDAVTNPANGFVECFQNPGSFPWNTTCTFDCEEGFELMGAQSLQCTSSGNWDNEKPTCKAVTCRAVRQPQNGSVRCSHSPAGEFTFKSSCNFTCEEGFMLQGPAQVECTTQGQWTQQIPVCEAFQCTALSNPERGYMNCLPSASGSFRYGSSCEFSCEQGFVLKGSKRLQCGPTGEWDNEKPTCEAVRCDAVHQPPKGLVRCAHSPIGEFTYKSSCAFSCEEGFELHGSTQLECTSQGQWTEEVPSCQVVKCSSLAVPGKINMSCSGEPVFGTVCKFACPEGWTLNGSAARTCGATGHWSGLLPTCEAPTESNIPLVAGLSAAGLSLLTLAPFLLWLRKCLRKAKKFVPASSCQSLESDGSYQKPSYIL

P-selectin = target: T3, P-selectin (Homo sapiens, UniProt P16109); experiment: In vitro inhibitory activity of compound was determined against Selectin P binding by ELISA assay
T3 sequence (P16109 whole entry): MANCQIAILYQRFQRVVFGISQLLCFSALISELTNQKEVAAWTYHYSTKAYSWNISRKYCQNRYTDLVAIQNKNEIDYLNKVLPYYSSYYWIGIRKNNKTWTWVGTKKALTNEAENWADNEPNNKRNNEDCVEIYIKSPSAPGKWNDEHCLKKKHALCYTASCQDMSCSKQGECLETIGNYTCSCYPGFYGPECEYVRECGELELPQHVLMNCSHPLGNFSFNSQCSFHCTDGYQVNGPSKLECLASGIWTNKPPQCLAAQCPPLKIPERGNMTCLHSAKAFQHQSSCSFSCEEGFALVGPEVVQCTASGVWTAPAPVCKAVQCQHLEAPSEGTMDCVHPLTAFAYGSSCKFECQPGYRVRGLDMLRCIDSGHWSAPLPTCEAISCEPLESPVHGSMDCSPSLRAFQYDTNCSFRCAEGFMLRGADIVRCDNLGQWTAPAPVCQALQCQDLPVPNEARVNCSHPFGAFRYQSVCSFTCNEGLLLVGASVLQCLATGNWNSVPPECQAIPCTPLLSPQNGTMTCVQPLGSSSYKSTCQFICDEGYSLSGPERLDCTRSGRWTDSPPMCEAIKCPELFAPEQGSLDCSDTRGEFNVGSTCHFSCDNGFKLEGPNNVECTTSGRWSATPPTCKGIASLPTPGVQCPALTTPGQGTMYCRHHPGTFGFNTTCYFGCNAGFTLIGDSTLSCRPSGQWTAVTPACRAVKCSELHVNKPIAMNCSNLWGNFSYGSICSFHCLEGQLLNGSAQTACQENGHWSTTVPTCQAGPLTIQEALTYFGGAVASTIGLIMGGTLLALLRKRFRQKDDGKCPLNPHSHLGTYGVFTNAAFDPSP

IC50 (L-selectin) | IC50 (E-selectin) | IC50 (P-selectin) | Compound
4 µM | 3.5 µM | 0.45 µM | CCCCCCCCCCCCCCC(CCCCCCCCCCCCCC)C(=O)N[C@@H](CO[C@@H]1O[C@@H](CO)[C@H](O)[C@H](O)[C@H]1O)C(=O)N[C@H](CCC(=O)O)C(=O)NC
2.34 µM | > 100 µM | 2.57 µM | CCCCCCCCCCCCCCC(CCCCCCCCCCCCCC)CN1CCCS[C@@H](CCC(=O)O)C(=O)N[C@H](CO[C@H]2O[C@H](CO)[C@@H](O)[C@@H](O)[C@@H]2O)C1=O
> 1000 µM |  | > 1000 µM | CC(=O)N[C@H]1[C@H]([C@H](O)[C@H](O)CO)O[C@@](O[C@H]2[C@@H](O)[C@@H](CO)O[C@@H](O[C@@H]([C@H](O[C@@H]3O[C@@H](C)[C@@H](O)[C@@H](O)[C@@H]3O)[C@H](C=O)NC(C)=O)[C@H](O)CO)[C@@H]2O)(C(=O)O)C[C@@H]1O [SIALYL LEWIS X]
